Data set [1] is described as follows: MDR1 LLC-PK1 and BCRP MDCKII Permeability Assay: permeability coefficient (Papp). Format: in vitro ADME. The following applies: MDCK, test article 1 μM, 37° C. How it is done:
(§1) Both LLC-PK1 and MDR1 transfected LLC-PK1 cells were cultured and plated according to manufacturer's recommendations with the exception that the passage media contained only 2% fetal bovine serum to extend passage time out to seven days.
(§2) BCRP transfected MDCKII canine P-gp knockout cell line was cultured and plated according to manufacturer's recommendations.
(§3) Both positive and negative controls were used to assess functionality of P-gp or BCRP efflux in the assays. Stock solutions for assay controls and the test article were prepared in DMSO for final test concentrations of 10 and 1 μM, respectively. Final organic concentration in the assay was 1%. All dosing solutions contained 10 μM lucifer yellow to monitor LLC-PK1 or MDCKII cell monolayer integrity.
(§4) For the apical to basolateral determination (A to B), 75 μL of the test article in transport buffer were added to the apical side of the individual transwells and 250 μL of basolateral media, without compound or lucifer yellow, were added to each well. For the basolateral to apical determination (B to A), 250 μL of test article in transport buffer were added to each well and 75 μL transport buffer, without compound or lucifer yellow, were added to each transwell. All tests were performed in triplicate, and each compound was tested for both apical to basolateral and basolateral to apical transport. The plates were incubated for 2 hours on a Lab-Line Instruments Titer Orbital Shaker (VWR, West Chester, PA) at 50 rpm and 37° C. with 5% CO2. All culture plates were removed from the incubator and 50 μL of media were removed from the apical and basolateral portion of each well and added to 150 μL of 1 μM labetalol in 2:1 acetonitrile (acetonitrile): H2O, v/v.
(§5) The plates were read using a Molecular Devices (Sunnyvale, CA) Gemini Fluorometer to evaluate the lucifer yellow concentrations at excitation/emission wavelengths of 425/535 nm. These values were accepted when found to be below 2% for apical to basolateral and 5% basolateral to apical flux across the MDR1-transfected LLC-PK1 or BCRP-transfected MDCKII cell monolayers. The plates were sealed and the contents of each well analyzed by LC-MS/MS. The compound concentrations were determined from the ratio of the peak areas of the compound to the internal standard (labetalol) in comparison to the dosing solution.
(§6) The LC-MS/MS system was comprised of an HTS-PAL autosampler (Leap Technologies, Carrboro, NC), an HP1200 HPLC (Agilent, Palo Alto, CA), and a MDS Sciex 4000 Q Trap system (Applied Biosystems, Foster City, CA). […] The total run time, including re-equilibration, for a single injection was 1.2 minutes. Mass spectrometric detection of the analytes was accomplished using the ion spray positive mode. Analyte responses were measured by multiple reaction monitoring (MRM) of transitions unique to each compound (the protonated precursor ion and selected product ions for each test article and m/z 329 to m/z 162 for labetalol, the internal standard).

The target of another data set is T1, P-gp (MDR1) (Homo sapiens, UniProt P08183).
T1 construct: expressed in transfected cells; host or cells: LLC-PK1 (porcine kidney) cells transfected with MDR1
The data set can be described thus: Efflux ratio in MDR1 transfected LLC-PK1 cells. It counts as in vitro ADME. The following applies: pig, Papp(B−A)/Papp(A−B). How it is done:
as §1, §3, §4, §5, §6
(§7) An efflux ratio is calculated from the mean apical to basolateral (A−B) Papp data and basolateral to apical (B−A) Papp data: Efflux ratio=Papp(B−A)/Papp(A−B)

The test system of data set [2] is ERK1/2(Thr202/Tyr204) phosphorylation (MEK-dependent) in A375 cells. The experiment in a line: Cellular Phospho-p44/42 MAPK (Erk1/2) (Thr202/Tyr204) Assay. Format: cell-based. As to conditions: Homo sapiens, A-375, 1-hour incubation, pERK1/2 (Thr202/Tyr204) In-Cell Western normalized to GAPDH. The essentials:
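A375 cells exposed 1 h to 10-point 1:3 dilutions (top 20–1 μM, 0.5% DMSO), then fixed and stained for pERK1/2 (Thr202/Tyr204) by In-Cell Western. Signal normalized to GAPDH per well; DMSO and 1 μM reference inhibitor define 0 and 100% inhibition.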

Another data set addresses T2, BCRP (hBCRP) (Homo sapiens, UniProt Q9UNQ0).
T2 construct: expressed in transfected cells; host or cells: MDCKII (canine kidney) cells, canine P-gp knockout, transfected with BCRP
T2 sequence (Q9UNQ0 1-655): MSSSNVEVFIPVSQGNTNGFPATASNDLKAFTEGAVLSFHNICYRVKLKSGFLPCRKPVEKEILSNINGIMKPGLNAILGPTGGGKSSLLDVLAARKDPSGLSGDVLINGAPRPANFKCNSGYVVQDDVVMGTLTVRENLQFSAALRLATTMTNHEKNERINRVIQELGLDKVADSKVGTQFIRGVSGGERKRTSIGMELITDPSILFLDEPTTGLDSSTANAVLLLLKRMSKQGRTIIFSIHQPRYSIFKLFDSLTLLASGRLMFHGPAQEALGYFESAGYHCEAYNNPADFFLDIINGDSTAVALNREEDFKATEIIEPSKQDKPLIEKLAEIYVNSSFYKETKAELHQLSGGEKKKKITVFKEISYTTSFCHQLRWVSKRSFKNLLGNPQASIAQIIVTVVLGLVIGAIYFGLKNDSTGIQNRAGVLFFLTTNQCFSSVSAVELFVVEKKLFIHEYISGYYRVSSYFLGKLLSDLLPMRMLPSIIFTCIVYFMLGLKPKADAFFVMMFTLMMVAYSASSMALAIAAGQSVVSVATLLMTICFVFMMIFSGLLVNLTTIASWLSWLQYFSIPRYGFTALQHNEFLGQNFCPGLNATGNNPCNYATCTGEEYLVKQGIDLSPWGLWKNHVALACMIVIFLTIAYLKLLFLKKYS
The experiment in a line: Efflux ratio in BCRP transfected MDCKII canine P-gp knockout cells. Format: in vitro ADME. As to conditions: Papp(B−A)/Papp(A−B), read-out: Efflux ratio MDCKII-hBCRP knock-in,canine pg-P KO. How it is done:
as §2, §3, §4, §5, §6, §7

The structures appear in SMILES notation. Structures can show the parent of a compound that is named as a salt.

The values that follow come from US11802127B2, “3,4-dihydro-2,7-naphthyridine-1,6(2H,7H)-diones as MEK inhibitors” (Pfizer Inc., priority 2021, dated 2023).

As usually defined, the Papp is a coefficient for how fast a substance crosses the barrier. A low value points to slow passage. As a reminder, the IC50 is the midpoint of a concentration-inhibition curve. Read a high IC50 as weaker potency in that assay.

T1 sequence (P08183 whole entry): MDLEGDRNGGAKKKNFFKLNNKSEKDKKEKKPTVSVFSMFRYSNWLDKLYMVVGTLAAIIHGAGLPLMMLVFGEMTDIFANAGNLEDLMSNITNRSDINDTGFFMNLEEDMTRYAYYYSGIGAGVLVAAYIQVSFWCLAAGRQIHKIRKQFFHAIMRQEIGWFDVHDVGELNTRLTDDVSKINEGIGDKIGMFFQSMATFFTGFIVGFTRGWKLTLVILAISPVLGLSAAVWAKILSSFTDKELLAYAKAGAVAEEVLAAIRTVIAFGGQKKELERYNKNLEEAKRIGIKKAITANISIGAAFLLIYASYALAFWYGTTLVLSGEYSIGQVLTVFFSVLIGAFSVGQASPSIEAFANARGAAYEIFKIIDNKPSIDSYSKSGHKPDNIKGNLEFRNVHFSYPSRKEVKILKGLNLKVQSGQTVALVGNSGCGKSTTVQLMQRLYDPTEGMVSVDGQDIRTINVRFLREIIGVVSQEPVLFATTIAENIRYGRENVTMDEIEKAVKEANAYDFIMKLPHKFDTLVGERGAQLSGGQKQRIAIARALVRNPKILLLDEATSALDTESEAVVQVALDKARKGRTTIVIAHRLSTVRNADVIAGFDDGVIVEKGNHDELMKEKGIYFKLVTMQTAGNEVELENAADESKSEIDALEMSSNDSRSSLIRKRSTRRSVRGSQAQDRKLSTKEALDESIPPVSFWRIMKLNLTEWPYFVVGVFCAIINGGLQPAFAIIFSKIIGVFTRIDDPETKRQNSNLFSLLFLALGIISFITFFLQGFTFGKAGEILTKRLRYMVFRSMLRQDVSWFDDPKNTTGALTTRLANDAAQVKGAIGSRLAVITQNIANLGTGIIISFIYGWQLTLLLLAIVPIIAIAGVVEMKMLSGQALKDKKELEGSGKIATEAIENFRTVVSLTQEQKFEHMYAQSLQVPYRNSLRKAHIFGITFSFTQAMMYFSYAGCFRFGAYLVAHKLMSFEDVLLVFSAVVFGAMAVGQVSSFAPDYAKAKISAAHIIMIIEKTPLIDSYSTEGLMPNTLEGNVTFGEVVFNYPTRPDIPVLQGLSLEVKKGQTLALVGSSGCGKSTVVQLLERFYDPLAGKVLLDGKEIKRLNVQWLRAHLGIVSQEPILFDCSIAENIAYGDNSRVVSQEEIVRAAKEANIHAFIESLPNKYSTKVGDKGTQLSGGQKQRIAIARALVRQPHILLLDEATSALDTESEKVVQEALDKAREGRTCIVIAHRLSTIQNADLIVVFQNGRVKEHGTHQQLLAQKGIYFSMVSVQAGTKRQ

Take `CCON1CCc2cc(=O)n(C)c(Nc3ccc(I)cc3F)c2C1=O` [Example 28, 2-ethoxy-8-((2-fluoro-4-iodophenyl)amino)-7-methyl-3,4-dihydro-2,7-naphthyrdine-1,6(2H,7H)-dione]: the apparent permeability (Papp) at 2 h, 1 μM in data set [1] turned out to be 26.1 ×10⁻⁶ cm/s. The efflux ratio at 2 h, 1 μM at P-gp (MDR1) and on BCRP (hBCRP) was 1.1 in each case. In data set [2], this compound had an IC50 of 26 nM.

Regarding `CON1CCc2cc(=O)n(C)c(Nc3ccc(I)cc3F)c2C1=O` [Example 29, 8-((2-fluoro-4-iodophenyl)amino)-2-methoxy-7-methyl-3,4-dihydro-2,7-naphthyridine-1,6(2H,7H)-dione], in data set [1], the apparent permeability (Papp) at 2 h, 1 μM was 32.8 ×10⁻⁶ cm/s. Moreover, the efflux ratio at 2 h, 1 μM came to 1.5 on P-gp (MDR1) and 1.1 at BCRP (hBCRP). The compound also came in with an IC50 in data set [2] of 17 nM.

Take `C[C@H](O)CON1CCc2cc(=O)n(C)c(Nc3ccc(I)cc3F)c2C1=O` [Example 31, (S)-8-((2-fluoro-4-iodophenyl)amino)-2-(2-hydroxypropoxy)-7-methyl-3,4-dihydro-2,7-naphthyridine-1,6(2H,7H)-dione]: the Papp at 2 h, 1 μM in data set [1] was 24.8 ×10⁻⁶ cm/s. Further, the efflux ratio at 2 h, 1 μM on P-gp (MDR1) came out at 5.3; on BCRP (hBCRP), 4.4. Also, in data set [2], inhibition was half-maximal at 1 nM (IC50).

In data set [1], `C[C@@H](O)CON1CCc2cc(=O)n(C)c(Nc3ccc(I)cc3F)c2C1=O` [Example 32, (R)-8-((2-fluoro-4-iodophenyl)amino)-2-(2-hydroxypropoxy)-7-methyl-3,4-dihydro-2,7-naphthyridine-1,6(2H,7H)-dione] registered an apparent permeability (Papp) at 2 h, 1 μM of 24.8 ×10⁻⁶ cm/s. Also, the results for the efflux ratio at 2 h, 1 μM on P-gp (MDR1) and on BCRP (hBCRP) were 6.5 and 5.2, respectively. Further, the IC50 in data set [2] worked out at 10 nM.

Turning to `C[C@H](O)CON1CCc2cc(=O)n(C)c(Nc3ccc(Br)cc3F)c2C1=O` [Example 33, (S)-8-((4-bromo-2-fluorophenyl)amino)-2-(2-hydroxypropoxy)-7-methyl-3,4-dihydro-2,7-naphthyridine-1,6(2H,7H)-dione], in data set [1], the apparent permeability coefficient (Papp) at 2 h, 1 μM turned out to be 24.7 ×10⁻⁶ cm/s. In addition, the efflux ratio at 2 h, 1 μM at P-gp (MDR1) amounted to 4; at BCRP (hBCRP), 8.3. This compound also registered an IC50 in data set [2] of 19 nM.

In turn, `Cn1c(Nc2ccc(Br)cc2F)c2c(c(Cl)c1=O)CCN(OCCO)C2=O` [Example 37, 8-((4-bromo-2-fluorophenyl)amino)-5-chloro-2-(2-hydroxyethoxy)-7-methyl-3,4-dihydro-2,7-naphthyridine-1,6(2H,7H)-dione] gave a Papp at 2 h, 1 μM in data set [1] of 28.6 ×10⁻⁶ cm/s. Besides, the efflux ratio at 2 h, 1 μM on P-gp (MDR1) was 2.7; at BCRP (hBCRP), 3.3. Moreover, the half-maximal inhibitory concentration (IC50) in data set [2] was 116 nM.

As for `Cn1c(Nc2ccc(I)cc2F)c2c(c(Cl)c1=O)CCN(OCCO)C2=O` [Example 38, 5-chloro-8-((2-fluoro-4-iodophenyl)amino)-2-(2-hydroxyethoxy)-7-methyl-3,4-dihydro-2,7-naphthyridine-1,6(2H,7H)-dione], the Papp at 2 h, 1 μM in data set [1] was 24.6 ×10⁻⁶ cm/s. For the same compound, the efflux ratio at 2 h, 1 μM on P-gp (MDR1) was determined as 4.5; on BCRP (hBCRP), 2.9. In addition, the IC50 in data set [2] was found to be 7 nM.

Take `Cn1c(Nc2ccc(Br)cc2F)c2c(c(F)c1=O)CCN(OCCO)C2=O` [Example 39, 8-((4-bromo-2-fluorophenyl)amino)-5-fluoro-2-(2-hydroxyethoxy)-7-methyl-3,4-dihydro-2,7-naphthyridine-1,6(2H,7H)-dione]: the apparent permeability (Papp) at 2 h, 1 μM in data set [1] amounted to 32.3 ×10⁻⁶ cm/s. The efflux ratio at 2 h, 1 μM at P-gp (MDR1) was determined as 3.9; at BCRP (hBCRP), 3.2. For the same compound, in data set [2], the half-maximal inhibitory concentration (IC50) was determined as 62 nM.

With `Cc1c2c(c(Nc3ccc(I)cc3F)n(C)c1=O)C(=O)N(OCCO)CC2` [Example 40, 8-((2-fluoro-4-iodophenyl)amino)-2-(2-hydroxyethoxy)-5,7-dimethyl-3,4-dihydro-2,7-naphthyridine-1,6(2H,7H)-dione], the apparent permeability coefficient (Papp) at 2 h, 1 μM in data set [1] was determined as 28.4 ×10⁻⁶ cm/s. Besides, the efflux ratio at 2 h, 1 μM on P-gp (MDR1) is 3.6; on BCRP (hBCRP), 1.9. The compound also came in with an IC50 in data set [2] of 4 nM.

On to `Cn1c(Nc2ccc(Br)cc2F)c2c(c(Br)c1=O)CCN(OCCO)C2=O` [Example 42, 5-bromo-8-((4-bromo-2-fluorophenyl)amino)-2-(2-hydroxyethoxy)-7-methyl-3,4-dihydro-2,7-naphthyridine-1,6(2H,7H)-dione], for which, in data set [1], the Papp at 2 h, 1 μM is 29.4 ×10⁻⁶ cm/s. The efflux ratio at 2 h, 1 μM at P-gp (MDR1) amounted to 2.8; on BCRP (hBCRP), 3.3. In data set [2], this compound yielded an IC50 of 143 nM.

`CCc1ccc(Nc2c3c(c(C)c(=O)n2C)CCN(OCCO)C3=O)c(F)c1` [Example 44, 8-((4-ethyl-2-fluorophenyl)amino)-2-(2-hydroxyethoxy)-5,7-dimethyl-3,4-dihydro-2,7-naphthyridine-1,6(2H,7H)-dione]: in data set [1], the Papp at 2 h, 1 μM was determined as 33 ×10⁻⁶ cm/s. In addition, the figures for the efflux ratio at 2 h, 1 μM on P-gp (MDR1) and at BCRP (hBCRP) were 1.1 and 2.7, respectively. This compound came in with a concentration for half-maximal inhibition (IC50) in data set [2] of 13 nM.

In data set [1], `Cc1c2c(c(Nc3ccc(C4CC4)cc3F)n(C)c1=O)C(=O)N(OCCO)CC2` [Example 45, 8-((4-cyclopropyl-2-fluorophenyl)amino)-2-(2-hydroxyethoxy)-5,7-dimethyl-3,4-dihydro-2,7-naphthyridine-1,6(2H,7H)-dione] showed an apparent permeability coefficient (Papp) at 2 h, 1 μM of 31.8 ×10⁻⁶ cm/s. In addition, the values for the efflux ratio at 2 h, 1 μM on P-gp (MDR1) and on BCRP (hBCRP) were 2.2 and 1.3, respectively. In data set [2], this compound came in with a 50% inhibitory concentration (IC50) of 20 nM.

With `Cc1c2c(c(Nc3ccc(I)cc3F)n(C)c1=O)C(=O)NCC2` [Example 48, 8-((2-fluoro-4-iodophenyl)amino)-5,7-dimethyl-3,4-dihydro-2,7-naphthyridine-1,6(2H,7H)-dione], the Papp at 2 h, 1 μM in data set [1] came out at 16.2 ×10⁻⁶ cm/s. For the same compound, the efflux ratio at 2 h, 1 μM on P-gp (MDR1) is 1.4; at BCRP (hBCRP) it was 1. Further, the midpoint of inhibition in data set [2], the IC50, lay at 6 nM.

On to `Cn1c(Nc2ccc(I)cc2F)c2c(cc1=O)CCNC2=O` [Example 49, 8-((4-iodo-2-fluorophenyl)amino)-7-methyl-3,4-dihydro-2,7-naphthyridine-1,6(2H,7H)-dione trifluoroacetate], for which, in data set [1], the apparent permeability (Papp) at 2 h, 1 μM worked out at 39.3 ×10⁻⁶ cm/s. Moreover, the efflux ratio at 2 h, 1 μM at P-gp (MDR1) was 1.4; on BCRP (hBCRP), 1. In data set [2], the concentration for half-maximal inhibition (IC50) came to 2 nM.

For the compound `CSc1ccc(Nc2c3c(cc(=O)n2C)CCNC3=O)c(F)c1` [Example 50, 8-((2-fluoro-4-(methylthio)phenyl)amino)-7-methyl-3,4-dihydro-2,7-naphthyridine-1,6(2H,7H)-dione trifluoroacetate], in data set [1], the apparent permeability (Papp) at 2 h, 1 μM is 36.7 ×10⁻⁶ cm/s. Moreover, the efflux ratio at 2 h, 1 μM on P-gp (MDR1) was determined as 1.2; at BCRP (hBCRP) it was 1.3. This compound also gave an IC50 in data set [2] of 12 nM.
